The text below walks through data of patent US6025358A, “Double prodrugs of potent GP IIb/IIIa antagonists” (G. D. Searle & Co., priority 1999, dated 2000).

For the assay, the system named is platelet aggregation. Kind of assay: Ex vivo screening of oral GP IIb/IIIa inhibitors: inhibition of collagen-induced platelet aggregation in PRP after oral dosing in beagles. Conditions: beagle dogs, 5 mpk, collagen agonist; for inhibition in vivo at 5 mg/kg: Canis lupus familiaris, Platelet, n = 2, 32 hours post-dosing, read-out: Percent inhibition of platelet aggregation at 32 hour post-dosing; for % inhibition of platelet aggregation @ 10 hours: n = 2, 10 hours post-dosing. On the procedure: Beagles (8-13 kg, various sources) of either sex are dosed orally with compound in a gelatin capsule. Blood samples are drawn from the cephalic vein using a 23 ga infusion butterfly. Samples for platelet aggregation and drug concentration are taken prior to dosing and 0.5, 1, 2, 3, 5, 7 and 10 hours after dosing and periodically on subsequent days until inhibition of platelet aggregation is less than 30%. Animals are fasted, with ad lib access to water, overnight prior to dosing. For measurement of plasma concentration blood is drawn into a 3 ml tube containing 45 USP units of Na Heparin. Blood is centrifuged at 1700×g for 10 minutes, plasma is aspirated and frozen at -20° C. until analyzed by HPLC. For measurement of platelet aggregation, blood is drawn into 2 2.0 ml tubes containing 0.2 ml of 3.8% Na Citrate. Blood is centrifuged at 250×g for 6 minutes and the platelet rich plasma (PRP) is aspirated. The remaining blood is centrifuged at 1700×g for 10 minutes and platelet poor plasma (PPP) is aspirated. Platelet aggregation is performed in a Bio-Data PAP-4 aggregometer (Bio-Data Corp., Havertown, Pa.) using collagen (100 μg/ml final concentration; Helena Laboratories, Beaumont, Tex.) as the agonist. Briefly, baseline (100% aggregation) is set using PPP; PRP is incubated at 37° C. for one minute without stirring and one minute with stirring, agonist is added and aggregation is allowed to develop for 4 minutes. Percent aggregation post-dosing is compared to percent aggregation pre-dosing to determine percent inhibition.
Percent inhibition of platelet aggregation at 32 hour post-dosing in
beagle dogs (5 mpk, n = 2)

The structures appear in SMILES notation. Counter-ions that a name gives are not always drawn.

Take `CCOC(=O)CCNC(=O)N[C@H]1CCN(c2ccc(C(N)=NO)cc2)C1=O` [Example 1, N-[[[(3S)-1-[4-[(hydroxyamino)iminomethyl]phenyl]-2-oxo-3-pyrrolidinyl]amino]carbonyl]-β-alanine ethyl ester monohydrochloride]: the inhibition in vivo at 5 mg/kg turned out to be 95%. For `N=C(N)c1ccc(N2CC[C@H](NC(=O)NCCC(=O)O)C2=O)cc1` [6(e), N-[[[(3S)-1-[4-(Aminoiminomethyl)phenyl]-2-oxo-3-pyrrolidinyl]amino]-carbonyl]-β-alanine trifluoroacetate, reference compound], the “% inhibition of platelet aggregation @ 10 hours” value is 28%. For the compound `NC(=O)ON=C(N)c1ccc(N2CC[C@H](NC(=O)NCCC(=O)O)C2=O)cc1` [6(d), N-[[[(3S)-1-[4-[[[(aminocarbonyl)oxy]amino]iminomethyl]phenyl]-2-oxo-3-pyrrolidinyl]amino]carbonyl]-β-alanine], the “% inhibition of platelet aggregation @ 10 hours” value came to 15%. On to `CCOC(=O)CCNC(=O)N[C@H]1CCN(c2ccc(C(=N)NC(=O)c3ccccc3)cc2)C1=O` [Example 7, N-[[[3(S)-1-[4-[imino[(phenylcarbonyl)amino]methyl]phenyl]-2-oxo-3-pyrrolidinyl]amino]carbonyl]-β-alanine ethyl ester], for which the inhibition in vivo at 5 mg/kg turned out to be 53%.
